Measured values taken from patent US6716987B1, “Derivatives of benzofuran or benzodioxazole compounds” (Kyowa Hakko Kogyo Co., Ltd., priority 1995, dated 2004).

What was measured:
phosphodiesterase 4A = target: T1, phosphodiesterase 4A (Homo sapiens, UniProt P27815); assay: Recombinant human PDE4A assay; format: biochemical; conditions: for inhibition at 0.1 µM: 10^−7 M, read-out: Enzyme Inhibitory Activity (%, 10^−7 M)
T1 construct: made in house; host or cells: E. coli

TNF α production = assay: Suppression effect on TNF α production in the LPS induced mouse sepsis model; format: in vivo; conditions: serum TNF α
Protocol: Lipopolysaccharide (LPS, DIFCO Laboratories) was dissolved in physiological saline to make a final concentration of 0.2 mg/ml. The resulting solution was administered intravenously to the tail of Balb/c male mice (7-week-old) (Charls River Japan Co.) at 200 μl per 20 g body weight of 5 to 6 mice/group. One hour after administration, blood was drawn from a fundus oculi vein of each mouse to obtain serum. […] The concentration of TNF a in serum was measured by enzyme-linked immunosorbent assay (ELISA method) as follows: […] anti-mouse TNF a monoclonal antibody (Pharmingen Inc.) diluted with a phosphate buffer solution (PBS) was added to a 96-well microtiter plate (Nalge Nunc International immuno-plate <MaxiSorp=) at […]; allowed to stand at 4° C. for 12 hours for coating; mixed with […] of a phosphate buffer solution containing 1% bovine serum albumin (BSA) (1% BSA-PBS); allowed to stand at room temperature for 1 hour to block the non-specific binding; washed with phosphate buffer solution; mixed with […] of the subject serum diluted two-fold with 1% BSA-PBS; and allowed to stand at room temperature for 2 hours. Furthermore, recombinant mouse TNF α (Genzyme Corp.) diluted with 1% BSA-PBS was similarly treated and used as a standard substance. These plates were washed three times with PBS (0.05% Tween-PBS) containing 0.05% polyoxyethylenesorbitan monolaurate (Tween 20, Wako Pure Chemical Industries, Ltd.), mixed with […] of biotin-labelled anti-mouse TNF α monoclonal antibody (Method A: Pharmingen Inc.; Method B: Genzyme Corp) diluted with 1% BSA-PBS to make a concentration of 1 mg/ml, allowed to stand at room temperature for 1 hour, washed three times with 0.05% Tween-PBS, mixed with […] of horseradish peroxidase avidin D (Vector Laboratories Inc.) diluted four-thousand-fold with 1% BSA-PBS, and allowed to stand at room temperature for 30 min. Finally, these plates were washed three times with 0.05% Tween-PBS, and mixed with […] of 3,3′,5,5′-tetramethylbenzidine. After color development, the reaction was stopped by adding […] of 10% sulfuric acid solution, and then, the absorbance at 450 nm was measured. The concentration of TNF α in serum was calculated from a calibration curve.
The rate of suppression of each test compound on TNF α production was obtained from the following formula:
Suppression rate=(A−B)/A,
wherein A is the TNF α concentration of the control group and B is the TNF α concentration of the experimental group.
In the above formula, the TNF α concentration of the control group is defined as the value obtained in the absence of the test compound (0.5% methyl cellulose solution alone).
Employed as the reference compounds were 7-methoxy-4-[1-oxo-2-(4-pyridyl)ethyl]-spiro[2,3-dihydrobenzofuran-2,1′-cyclopentane] hydrochloride (disclosed in Example 100 of Japanese Patent Laid-Open No. 8-836624 and hereinafter referred to as Compound RA) having the formula (RA) and 2-benzoyl-4-(3,5-dichloro-4-pyridyl)aminocarbonyl)-7-methoxybenzofuran (disclosed in Example 35 of Japanese Patent Laid-Open No. 8-534708 and hereinafter referred to as Compound RB) having the formula (RB): [drawing 660]

Sunkus murinus = assay: Effect on vomiting induction in male Sunkus murinus; format: in vivo; conditions: dose 10 mg/kg i.p., observed for 1 hour after administration
Protocol: Five to fifteen male Sunkus murinus per group weighing approximately 60 g were used for the test. According to the method of Matsumoto, et. al. [Japan J. Pharmacol., 48, 303 (1988)], Sunkus murinus were placed separately into metal wire cages (width 15 cm×length 21 cm×height 15 cm). Each sample of the test compound was suspened in a 0.5% Tween 80 physiological saline solution and administered intraperitoneally (i.p.) at a dose of 10 ml/kg. […] In the group that was administered the test-compound, the results are represented as the number of vomiting animals/the number of experimental animals. Compound RA was employed as a reference compound.

[1] = Method B, dose 30 mg/kg orally 90 min before LPS
[2] = Method A, dose 10 mg/kg orally 90 min before LPS

T1 sequence (P27815 224-886 limits assumed): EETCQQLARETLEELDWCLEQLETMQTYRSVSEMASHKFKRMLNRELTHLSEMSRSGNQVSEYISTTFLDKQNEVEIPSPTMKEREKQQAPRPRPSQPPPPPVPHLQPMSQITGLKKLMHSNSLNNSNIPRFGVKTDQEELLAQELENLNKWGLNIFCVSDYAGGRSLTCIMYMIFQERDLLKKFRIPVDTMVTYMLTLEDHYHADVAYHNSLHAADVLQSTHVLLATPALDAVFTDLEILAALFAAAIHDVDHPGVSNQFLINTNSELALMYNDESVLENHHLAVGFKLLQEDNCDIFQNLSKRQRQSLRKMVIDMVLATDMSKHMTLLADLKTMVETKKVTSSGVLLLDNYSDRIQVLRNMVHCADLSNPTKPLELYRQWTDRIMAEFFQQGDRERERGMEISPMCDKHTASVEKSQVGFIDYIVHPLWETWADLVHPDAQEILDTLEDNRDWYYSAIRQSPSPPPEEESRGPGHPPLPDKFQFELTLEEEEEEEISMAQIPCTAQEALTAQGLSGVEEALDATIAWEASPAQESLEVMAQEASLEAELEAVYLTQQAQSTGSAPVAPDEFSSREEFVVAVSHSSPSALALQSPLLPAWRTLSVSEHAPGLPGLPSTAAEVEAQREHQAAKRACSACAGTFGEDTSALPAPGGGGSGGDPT

COc1ccc(C(=O)Cc2c(Cl)cncc2Cl)c2c(CC(=O)OCCc3ccccc3)coc12 [Compound 153, 4-[2-(3,5-Dichloro-4-pyridyl)-1-oxoethyl]-7-methoxy-3-phenethyloxycarbonylmethylbenzofuran] gave a melting point of 183 to 184 °C and an inhibition at 0.1 µM (phosphodiesterase 4A) of 94%.

COc1ccc(/C=C/c2c(Cl)cncc2Cl)c2cc(-c3ccccn3)oc12 [Compound 84, (E)-4-[2-(3,5-Dichloro-4-pyridyl)ethenyl]-7-methoxy-2-(2-pyridyl)benzofuran] gave a melting point of 157 to 158 °C and an inhibition at 0.1 µM (phosphodiesterase 4A) of 98%.

With COc1ccc(C(=O)Cc2c(Cl)cncc2Cl)c2cc(C(=O)N3CCN(C)CC3)oc12 [Compound 206] the “Suppression rate (%)” value (TNF α production; [1]) was 65% and the “Number of vomiting animals/Number of experimental animals” value (Sunkus murinus) was 0/5.

With COc1ccc(C(=O)Nc2c(Cl)cncc2Cl)c2cc(C(=O)c3ccccc3)oc12 [RB, reference compound] the “Suppression rate (%)” value (TNF α production; [2]) was 48%, the “Suppression rate (%)” value (TNF α production; [1]) was 30% and the “Number of vomiting animals/Number of experimental animals” value (Sunkus murinus) was 0/5.

With “7-(4-carboxy-4-pyridyl)-4-methoxy-spiro[1,3-benzodioxole-2,1=-cyclopentane] [Compound 203]” the “Suppression rate (%)” value (TNF α production; [2]) was 100% and the “Number of vomiting animals/Number of experimental animals” value (Sunkus murinus) was 1/5.

With COc1ccc(C(=O)Nc2c(Cl)cncc2Cl)c2cc(C(=O)N3CCN(CCO)CC3)oc12 [Compound 202, 4-(3,5-dichloro-4-pyridyl)aminocarbonyl-7-methoxy-2-[4-(2-hydroxyethyl)-1-piperazinyl]carbonylbenzofuran] the “Suppression rate (%)” value (TNF α production; [2]) was 92% and the “Number of vomiting animals/Number of experimental animals” value (Sunkus murinus) was 0/5.

For COc1ccc(C(=O)Nc2c(Cl)cncc2Cl)c2cc(C(=O)CCCN3CCN(C)CC3)oc12 [Compound 214, N-(3,5-dichloropyridin-4-yl)-2-[4-(4-methyl-1-piperazinyl)]-butyryl-7-methoxybenzofuran-4-carboxamide], the “Suppression rate (%)” value (TNF α production; [1]) was 65% and the “Number of vomiting animals/Number of experimental animals” value (Sunkus murinus) was 3/5.

In the case of COc1ccc(C(=O)Nc2c(Cl)cncc2Cl)c2cc(C(=O)CCCN3CCOCC3)oc12 [Compound 213, N-(3,5-Dichloropyridin-4-yl)-2-(4-morpholino)butyryl-7methoxybenzofuran-4-carboxamide], the “Suppression rate (%)” value (TNF α production; [1]) is reported as 65% and the “Number of vomiting animals/Number of experimental animals” value (Sunkus murinus) is reported as 0/5.

COc1ccc(C(=O)Nc2c(Cl)cncc2Cl)c2c1OC1(CCCC1)O2 [Compound 134, 7-(3,5-Dichloro-4-pyridylaminocarbonyl)-4-methoxy-spiro[1,3-benzodioxole-2,1′-cyclopentane]] gave a melting point of 168 to 170 °C and an inhibition at 0.1 µM (phosphodiesterase 4A) of 100%.

COc1ccc(C(=O)Cc2c(Cl)cccc2Cl)c2cc(C(=O)Nc3cccc(F)c3)oc12 [Compound 161, 4-[2-(2,6-Dichlorophenyl)-1-oxoethyl]-2-[(3-fluorophenyl)aminocarbonyl]-7-methoxybenzofuran] gave a melting point of 251 to 252 °C and an inhibition at 0.1 µM (phosphodiesterase 4A) of 87%.

For COc1ccc(C(=O)Cc2ccncc2)c2c1OC1(CCCCC1)C2.Cl [Compound 102, 7-Methoxy-4-[1-oxo-2-(4-pyridyl)ethyl]-spiro[2,3-dihydrobenzofuran-2,1′-cyclohexane].hydrochloride], the “Enzyme Inhibitory Activity (%, 10^−7 M)” value (phosphodiesterase 4A) was 95%.

Work on COc1ccc(C(=O)Cc2c(Cl)cncc2Cl)c2c1OC1(CCCCC1)C2 [Compound 101, 4-[2-(3,5-Dichloro-4-pyridyl)-1-oxoethyl]-7-methoxy-spiro[2,3-dihydrobenzofuran-2,1′-cyclohexane]] yielded a melting point of 149 to 151 °C and an inhibition at 0.1 µM (phosphodiesterase 4A) of 100%.

Molecule COc1ccc(C(=O)Cc2c(Cl)cncc2Cl)c2c(CC(=O)Nc3cccnc3)coc12 [Compound 156, 4-[2-(3,5-Dichloro-4-pyridyl)-1-oxoethyl]-7-methoxy-3-[(3-pyridyl)aminocarbonylmethyl]benzofuran] has a melting point of 252 to 255 °C and an inhibition at 0.1 µM (phosphodiesterase 4A) of 90%.

With COc1ccc(C(=O)Nc2c(Cl)cccc2Cl)c2cc(C(=O)c3ccccc3)oc12 [Compound 168, 2-Benzoyl-4-[(2,6-dichiorophenyl)aminocarbonyl]-7-methoxybenzofuran] the “Enzyme Inhibitory Activity (%, 10^−7 M)” value (phosphodiesterase 4A) was 96%.

In the case of COc1ccc(C(=O)Cc2c(Cl)cncc2Cl)c2c(CC(=O)NCc3ccccc3)coc12 [Compound 155, 3-Benzylaminocarbonylmethyl-4-[2-(3,5-dichloro-4-pyridyl)-1-oxoethyl]-7-methoxybenzofuran], the melting point is reported as 244 to 246 °C and the inhibition at 0.1 µM (phosphodiesterase 4A) is reported as 96%.

Work on COc1ccc(C(=O)Cc2c(Cl)cncc2Cl)c2c(CC(=O)OCc3ccccc3[N+](=O)[O-])coc12 [Compound 154, 4-[2-(3,5-Dichloro-4-Pyridyl)-1-oxoethyl]-7-methoxy-3-[(2-nitrobenzyl)oxycarbonylmethyl]benzofuran] yielded a melting point of 200 to 201 °C and an inhibition at 0.1 µM (phosphodiesterase 4A) of 92%.

COc1ccc(C=Cc2c(Cl)cncc2Cl)c2c1OC1(CCCC1)O2 [Compound 138, 7-[2-(3,5-Dichloro-4-pyridyl)ethenyl]-4-methoxy-spiro[1,3-benzodioxole-2,1′-cyclopentane]] gave a melting point of 100 to 101 °C and an inhibition at 0.1 µM (phosphodiesterase 4A) of 100%.

In the case of COc1ccc(C(=O)Cc2c(Cl)cccc2Cl)c2cc(C(=O)c3ccccc3)oc12 [Compound 163, 2-Benzoyl-4-[2-(2,6-dichlorophenyl)-1-oxoethyl]-7-methoxybenzofuran], the melting point is reported as 223 to 224 °C and the inhibition at 0.1 µM (phosphodiesterase 4A) is reported as 96%.

With COc1ccc(C(=O)Nc2c(Cl)cncc2Cl)c2cc(C(=O)c3ccccc3)oc12 [Compound 35] the “Enzyme Inhibitory Activity (%, 10^−7 M)” value (phosphodiesterase 4A) was 100%.

In the case of COc1ccc(C(=O)Cc2c(Cl)cccc2Cl)c2cc(C(=O)c3ccccn3)oc12 [Compound 160, 4-[2-(2,6-Dichlorophenyl)-1-oxoethyl]-7-methoxy-2-(2-pyridylcarbonyl)benzofuran], the melting point is reported as 228 to 229 °C and the inhibition at 0.1 µM (phosphodiesterase 4A) is reported as 91%.

COc1ccc(/C=C/c2c(Cl)cncc2Cl)c2c1OCCCO2 [Compound 191, (E)-6-[2-(3,5-dichloro-4-pyridyl)ethenyl]-3,4-dihydro-9-methoxy-2H-1,5-benzodioxepin] gave a melting point of 118 to 120 °C and an inhibition at 0.1 µM (phosphodiesterase 4A) of 84%.

COc1ccc(C(=O)Cc2c(Cl)cncc2Cl)c2c1OCCCO2 [Compound 189, 6-[2-(3,5-dichloro-4-pyridyl)-1-oxoethyl]-3,4-dihydro-9-methoxy-2H-1,5-benzodioxepin] gave a melting point of 150 to 151 °C and an inhibition at 0.1 µM (phosphodiesterase 4A) of 84%.

For COc1ccc(C(=O)Cc2c(Cl)cncc2Cl)c2c(CC(=O)NCc3ccccn3)coc12.Cl.Cl [Compound 157, 4-[2-(3,5-Dichloro-4-pyridyl)-1-oxoethyl]-7-methoxy-3-[(2-pyridylmethyl)aminocarbonylmethyl]benzofuran.2 hydrochloride], the “Enzyme Inhibitory Activity (%, 10^−7 M)” value (phosphodiesterase 4A) was 89%.

COc1ccc(C(=O)Cc2c(Cl)cncc2Cl)c2c1OCCCCO2 [Compound 194, 7-[2-(3,5-dichloro-4-pyridyl)-1-oxoethyl]-10-methoxy-2,3,4,5-tetrahydro-1,6-benzodioxocin] gave a melting point of 142 to 143 °C and an inhibition at 0.1 µM (phosphodiesterase 4A) of 92%.

Molecule COc1ccc(C(=O)Nc2c(Cl)cncc2Cl)c2c1OC1(C=C2)CCCC1 [Compound 123, 5-(3,5-Dichloro-4-pyridylaminocarbonyl)-8-methoxy-spiro[benzopyran-2,1′-cyclopentane]] has a melting point of 129 to 131 °C and an inhibition at 0.1 µM (phosphodiesterase 4A) of 87%.
